Read-outs that look alike come from different tables or passages of the source.
Experiments:
[1] = target: T1, Purified recombinant NBD1 (Homo sapiens, UniProt P13569); assay: Aggregation analysis using differential static light scattering (DSLS): thermal stability of NBD1; type: binding; settings: NBD1 0.2 mg/ml; Tagg of compound well minus average Tagg of DMSO control wells
T1 construct: Purified recombinant NBD1 was produced using previously described methods; made in house
In short: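 Recombinant NBD1 at 0.2 mg/ml in Tris/NaCl/MgCl2 buffer with 2 mM ATP, 2 mM DTT, 1% glycerol, pH 7.6, was incubated with compound and heated at 1 °C/min to 70 °C while static light scattering was monitored. Tagg was taken from the curve inflection point and reported as ΔTagg relative to DMSO controls.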

[2] = system: Primary human bronchial epithelial cells from a ΔF508 homozygous CF donor (CF-HBE cells); assay: TECC24 recording of CFTR-mediated transepithelial chloride transport, AUC fold over benchmark VX-809 @10 μM; type: cell-based; settings: 48 hours incubation, AUC of forskolin-stimulated IEQ
In short: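 CF-HBE cells on inserts were treated with compound for 48 h at 36.5 °C, then recorded in current-clamp with benzamil 10 μM, forskolin 10 μM, and finally CFTR inhibitor-172 20 μM in pH 7.4 Hepes saline. Equivalent Cl− current AUC between forskolin and inhibitor addition is expressed as a ratio to VX-809 AUC: A <3, B 3–6, C 6–20.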

T1 sequence (P13569 423-646 limits assumed): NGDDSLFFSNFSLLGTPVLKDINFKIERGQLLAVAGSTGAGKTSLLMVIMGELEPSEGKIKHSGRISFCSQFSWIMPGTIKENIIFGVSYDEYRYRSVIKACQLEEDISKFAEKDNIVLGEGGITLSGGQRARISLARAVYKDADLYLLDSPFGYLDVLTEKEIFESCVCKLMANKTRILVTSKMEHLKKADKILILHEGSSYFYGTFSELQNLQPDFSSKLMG

Row | Compound | DSLS (ΔTagg) [1] | TECC (test agent AUC divided by VX-809 AUC) [2] | also measured
1 | CCOC(=O)CCc1cccc(C2(C)CCCOC(=O)N(C)C/C=C/c3c(c(F)cc4[nH]ccc34)Oc3ccc(F)c(c3)-c3ncc2[nH]3)c1 (stereo not shown) | – | – | ring closure, isolated yield (from CCC[CH2][Sn](/[CH]=C/CN(C)C(=O)OCCCC(C)(c1cccc(CCC(=O)OCC)c1)c1cnc(-c2cc(Oc3c(F)cc4[nH]ccc4c3Br)ccc2F)[nH]1)([CH2]CCC)[CH2]CCC, cc_pd bond, 19-membered ring): 66%
2 | CN1C(=O)OCc2c(c(F)cc3c2ccn3S(=O)(=O)c2ccccc2)Oc2ccc(F)c(c2)-c2nc(nn2C)C(C)(c2cccc(Br)c2)C/C=C\CC1(C)C (stereo not shown) | – | – | ring closure, isolated yield (from (5-(3-(3-(2-(3-Bromophenyl)pent-4-en-2-yl)-1-methyl-1H-1,2,4-triazol-5-yl)-4-fluorophenoxy)-6-fluoro-1 -(phenylsulfonyl)-NH-indol-4-yl)methyl methyl(2-methylpent-4-en-2-yl)carbamate, rcm bond, 19-membered ring, Grubbs II (0.4 eq), toluene, 5.1 mM, 60.0 °C): 60%
3 | CN1CC(C)(C)CCC[C@](C)(c2cccc(I)c2)c2nc(n(C)n2)-c2cc(ccn2)Oc2c(F)cc3[nH]ccc3c2/C=C/C1=O | – | – | ring closure, isolated yield (from CNCC(C)(C)CCC[C@](C)(c1cccc(I)c1)c1nc(-c2cc(Oc3c(F)cc4[nH]ccc4c3/C=C/C(=O)O)ccn2)n(C)n1, amide bond, 19-membered ring, 2 steps): 37%
4 | Cc1ccc(S(=O)(=O)n2ccc3c4c(c(F)cc32)Oc2ccnc(c2)-c2nc(nn2C)[C@@](C)(c2cccc(I)c2)CCCCC(C)(C)CN(C)C(=O)C4)cc1 | – | – | ring closure, isolated yield (amide bond, 19-membered ring, with chain assembly): 35%
5 | Cn1nc2nc1-c1cc(ccc1F)Oc1c(F)cc3[nH]ccc3c1CCC(=O)NS(=O)(=O)CC=CCC2(C)c1cccc(Br)c1 (stereo not shown) | – | – | ring closure, isolated yield (from C=CCC(C)(c1cccc(Br)c1)c1nc(-c2cc(Oc3c(F)cc4[nH]ccc4c3CCC(=O)NS(=O)(=O)CC=C)ccc2F)n(C)n1, rcm bond, 19-membered ring, Grubbs II (0.2 eq), toluene, 2.4 mM, 65.0 °C, 0.75 h): 60%
6 | CN1CC(=O)CCCCCC(C)(c2cccc(CCC(=O)O)c2)c2cnc([nH]2)-c2cc(ccc2F)Oc2c(F)cc3[nH]ccc3c2CC1=O (stereo not shown) [Compound 113, 3-[3-(24,30-Difluoro-6,14-dimethyl-12,15-dioxo-26-oxa-3,14,21,32-tetrazapentacyclo[25.3.1.12,5.017,25.018,22]dotriaconta-1(30),2,4,17(25),18(22),19,23,27(31),28-nonaen-6-yl)phenyl]propanoic acid] | C (a value greater than 10 °C and less than or equal to 25 °C is marked “C”) | A (a TECC value less than 3 is marked “A”) | –
7 | CC(Cc1cccc(C2(C)CCCCS(=O)(=O)NC(=O)CCc3c(c(F)cc4[nH]ccc34)Oc3ccc(F)c(c3)-c3nc2nn3C)c1)C(=O)O (stereo not shown) [Compound 114, 3-[3-(23,29-Difluoro-3,6-dimethyl-11,11,13-trioxo-25-oxa-11λ6-thia-3,4,12,20,31-pentazapentacyclo[24.3.1.12,5.016,24.017,21]hentriaconta-1(30),2(31),4,16,18,21,23,26,28-nonaen-6-yl)phenyl]-2-methyl-propanoic acid] | C (a value greater than 10 °C and less than or equal to 25 °C is marked “C”) | A (a TECC value less than 3 is marked “A”) | –
8 | Cn1nc2nc1-c1cc(ccc1F)Oc1c(F)cc3[nH]ccc3c1CCC(=O)NS(=O)(=O)CCCCC2(C)c1ccccc1 (stereo not shown) [Compound 115] | C (a value greater than 10 °C and less than or equal to 25 °C is marked “C”) | A (a TECC value less than 3 is marked “A”) | –
9 | C[C@@H](Cc1cccc(C2(C)CCCC(C)(C)NS(=O)(=O)CCc3c(c(F)cc4[nH]ccc34)Oc3ccc(F)c(c3)-c3nc2nn3C)c1)C(=O)O (stereo partly drawn) [Compound 116, (2S)-3-[3-(22,28-difluoro-3,6,10,10-tetramethyl-12,12-dioxo-24-oxa-12λ6-thia-3,4,11,19,30-pentazapentacyclo[23.3.1.12,5.015,23.016,20]triaconta-1(29),2(30),4,15,17,20,22,25,27-nonaen-6-yl)phenyl]-2-methyl-propanoic acid] | C (a value greater than 10 °C and less than or equal to 25 °C is marked “C”) | B (a value between 3 and 6 is marked “B”) | –
10 | C[C@@H](Cc1cccc([C@@]2(C)CCCC(C)(C)CN(C)C(=O)CCc3c(c(F)cc4[nH]ccc34)Oc3ccnc(c3)-c3nc2nn3C)c1)C(=O)O [Compound 118, (2S)-3-[3-[(6R)-23-fluoro-3,6,10,10,12-pentamethyl-13-oxo-25-oxa-3,4,12,20,29,31-hexazapentacyclo[24.3.1.12,5.016,24.017,21]hentriaconta-1(30),2(31),4,16,18,21,23,26,28-nonaen-6-yl]phenyl]-2-methyl-propanoic acid] | C (a value greater than 10 °C and less than or equal to 25 °C is marked “C”) | B (a value between 3 and 6 is marked “B”) | –
11 | C[C@H](Cc1cccc([C@@]2(C)CCCC(C)(C)CN(C)C(=O)CCc3c(c(F)cc4[nH]ccc34)Oc3ccnc(c3)-c3nc2nn3C)c1)C(=O)O [Compound 119, (2R)-3-[3-[(6R)-23-fluoro-3,6,10,10,12-pentamethyl-13-oxo-25-oxa-3,4,12,20,29,31-hexazapentacyclo[24.3.1.12,5.016,24.017,21]hentriaconta-1(30),2(31),4,16,18,21,23,26,28-nonaen-6-yl]phenyl]-2-methyl-propanoic acid] | B (a value above 5 °C and less than or equal to 10 °C is marked “B”) | B (a value between 3 and 6 is marked “B”) | –
12 | CN1CC(C)(C)CCC[C@](C)(c2cccc(CC(C)(C)C(=O)O)c2)c2nc(n(C)n2)-c2cc(ccn2)Oc2c(F)cc3[nH]ccc3c2CCC1=O [Compound 120, 3-[3-[(6R)-23-fluoro-3,6,10,10,12-pentamethyl-13-oxo-25-oxa-3,4,12,20,29,31-hexazapentacyclo[24.3.1.12,5.016,24.017,21]hentriaconta-1(30),2(31),4,16,18,21,23,26,28-nonaen-6-yl]phenyl]-2,2-dimethyl-propanoic acid] | B (a value above 5 °C and less than or equal to 10 °C is marked “B”) | A (a TECC value less than 3 is marked “A”) | –
13 | C[C@@H](Cc1cccc([C@@]2(C)CCCCC(C)(C)CN(C)C(=O)Cc3c(c(F)cc4[nH]ccc34)Oc3ccnc(c3)-c3nc2nn3C)c1)C(=O)O [Compound 121, (2S)-3-[3-[(6R)-23-fluoro-3,6,11,11,13-pentamethyl-14-oxo-25-oxa-3,4,13,20,29,31-hexazapentacyclo[24.3.1.12,5.016,24.017,21]hentriaconta-1(30),2(31),4,16,18,21,23,26,28-nonaen-6-yl]phenyl]-2-methyl-propanoic acid] | C (a value greater than 10 °C and less than or equal to 25 °C is marked “C”) | A (a TECC value less than 3 is marked “A”) | –
14 | C[C@H](Cc1cccc([C@@]2(C)CCCCC(C)(C)CN(C)C(=O)Cc3c(c(F)cc4[nH]ccc34)Oc3ccnc(c3)-c3nc2nn3C)c1)C(=O)O [Compound 122, (2R)-3-[3-[(6R)-23-fluoro-3,6,11,11,13-pentamethyl-14-oxo-25-oxa-3,4,13,20,29,31-hexazapentacyclo[24.3.1.12,5.016,24.017,21]hentriaconta-1(30),2(31),4,16,18,21,23,26,28-nonaen-6-yl]phenyl]-2-methyl-propanoic acid] | B (a value above 5 °C and less than or equal to 10 °C is marked “B”) | A (a TECC value less than 3 is marked “A”) | –
15 | CN1CC(C)(C)CCCC[C@](C)(c2cccc(CCC(=O)O)c2)c2nc(n(C)n2)-c2cc(ccn2)Oc2c(F)cc3[nH]ccc3c2CC1=O [Compound 123, 3-[3-[(6R)-23-Fluoro-3,6,11,11,13-pentamethyl-14-oxo-25-oxa-3,4,13,20,29,31-hexazapentacyclo[24.3.1.12,5.016,24.017,21]hentriaconta-1(30),2(31),4,16,18,21,23,26,28-nonaen-6-yl]phenyl]propanoic acid] | C (a value greater than 10 °C and less than or equal to 25 °C is marked “C”) | A (a TECC value less than 3 is marked “A”) | –
16 | CN1CC(C)(C)CCCC[C@](C)(c2cccc(CC(C)(C)C(=O)O)c2)c2nc(n(C)n2)-c2cc(ccn2)Oc2c(F)cc3[nH]ccc3c2CC1=O [Compound 124, 3-[3-[(6R)-23-fluoro-3,6,11,11,13-pentamethyl-14-oxo-25-oxa-3,4,13,20,29,31-hexazapentacyclo[24.3.1.12,5.016,24.017,21]hentriaconta-1(30),2(31),4,16,18,21,23,26,28-nonaen-6-yl]phenyl]-2,2-dimethyl-propanoic acid] | A (an ΔTagg value less than or equal to 5 °C is marked “A”) | A (a TECC value less than 3 is marked “A”) | –
17 | Methyl (2S)-3-[3-[(13E)-22,28-difluoro-3,6,10,10-tetramethyl-12,12-dioxo-]9-(p-tolylsulfonyl)-24-oxa-12A6-thia-3,4,11,19,30-pentazapentacyclo[23.3.1.12,5.015,23.016,20]triaconta-1(29),2(30),4,13,15,17,20,22,25,27-decaen-6-yl]phenyl]-2-methyl-propanoate | – | – | ring closure, isolated yield (cc_pd bond, 18-membered ring, Pd(PtBu3)2/TEA, toluene, 1.75 mM, 100.0 °C): 65%

Reference: patent publication US20250197420A1, “MACROCYCLIC COMPOUNDS, COMPOSITIONS, AND METHODS OF USING THEREOF” (Sionna Therapeutics Inc., priority 2022, published 2025)
